Reference: BindingDB's records for doi:10.7270/Q2QR4VJR (Nmmlsc, 2010)

Target: T1, Regulator of G-protein signaling 16 (Homo sapiens, UniProt O15492)
T1 sequence (O15492 whole entry): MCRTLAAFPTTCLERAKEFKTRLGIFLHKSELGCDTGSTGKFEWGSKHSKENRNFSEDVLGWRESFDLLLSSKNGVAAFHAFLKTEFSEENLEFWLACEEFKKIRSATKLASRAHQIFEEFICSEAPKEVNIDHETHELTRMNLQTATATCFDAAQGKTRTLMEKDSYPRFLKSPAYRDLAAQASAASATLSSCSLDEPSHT
Test: small molecules altering RGS16 interaction with Galphao – biochemical, multiplexed bead flow cytometry, SAR compounds, SAR follow-up (AID 2298)

## NS(=O)(=O)c1ccc(N=NCc2ccc(O)c(O)c2O)c([N+](=O)[O-])c1 [4-[[(E)-(2,3-dihydroxy-4-oxo-1-cyclohexa-2,5-dienylidene)methyl]hydrazo]-3-nitrobenzenesulfonamide]
  Ki: 20 nM

## O=C1C(Cl)=C(N2CCCCC2)C(=O)C(Cl)=C1c1cnc(N2CCCCC2)s1 [MLS000550549]
  Ki: 100 nM
